Test results reported in the supplement of paper PMC4862054.

Legend:
Conditions in all cases: incubation time: 72 h
MDA-MB-436 [1] = test: normalised viability (% of control), CellTiter-Blue; higher = more viable cells (100 = DMSO, 0 = benzethonium chloride kill control)
Experimental: (§1)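 DSRT, CellTiter-Blue viability, 72 h incubation. Signal is normalised to DMSO and benzethonium chloride controls. Value is the normalised response at dose 1.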

HCC1143 [2] = test: as above
Experimental: as §1

CAL-148 [3] = test: as above
Experimental: as §1

MDA-MB-231 [4] = test: as above
Experimental: as §1

MDA-MB-468 [5] = test: as above
Experimental: as §1

HCC1599 [6] = test: as above
Experimental: as §1

BT-474 [7] = test: as above
Experimental: as §1

HDQ-P1 [8] = test: as above
Experimental: as §1

CAL-51 [9] = test: as above
Experimental: as §1

CAL-85-1 [10] = test: as above
Experimental: as §1

MFM-223 [11] = test: as above
Experimental: as §1

SK-BR-3 [12] = test: as above
Experimental: as §1

Hs578T [13] = test: as above
Experimental: as §1

HCC1937 [14] = test: as above
Experimental: as §1

CAL-120 [15] = test: as above
Experimental: as §1

DU-4475 [16] = test: as above
Experimental: as §1

BT-549 [17] = test: as above
Experimental: as §1

MDA-MB-453 [18] = test: as above
Experimental: as §1

MDA-MB-436 [19] = test: normalised response (% of control), CellTiter-Glo; higher = more viable cells (100 = DMSO, 0 = benzethonium chloride kill control)
How it was run: (§2)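 Two readouts were taken after 72 h: CellTox Green fluorescence (485/520 nm) first, then CellTiter-Glo luminescence after 10 min at room temperature. Breast cancer cell lines had been seeded as 20 µl suspension into 384-well plates holding compound at 5 concentrations in 10-fold steps across a compound-specific 10,000-fold range. Each value is a normalised signal at a single concentration, with plates scaled to 0.1 % DMSO (100) and a positive kill control (0).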

HCC1143 [20] = test: as above
How it was run: as §2

CAL-148 [21] = test: as above
How it was run: as §2

MDA-MB-231 [22] = test: as above
How it was run: as §2

MDA-MB-468 [23] = test: as above
How it was run: as §2

HCC1599 [24] = test: as above
How it was run: as §2

MCF-10A = test: as above
How it was run: as §2

BT-474 [25] = test: as above
How it was run: as §2

HDQ-P1 [26] = test: as above
How it was run: as §2

CAL-51 [27] = test: as above
How it was run: as §2

CAL-85-1 [28] = test: as above
How it was run: as §2

MFM-223 [29] = test: as above
How it was run: as §2

SK-BR-3 [30] = test: as above
How it was run: as §2

Hs578T [31] = test: as above
How it was run: as §2

HCC1937 [32] = test: as above
How it was run: as §2

CAL-120 [33] = test: as above
How it was run: as §2

DU-4475 [34] = test: as above
How it was run: as §2

BT-549 [35] = test: as above
How it was run: as §2

MDA-MB-453 [36] = test: as above
How it was run: as §2

Row | Compound | normalised viability (MDA-MB-436 [1]) | normalised viability (HCC1143 [2]) | normalised viability (CAL-148 [3]) | normalised viability (MDA-MB-231 [4]) | normalised viability (MDA-MB-468 [5]) | normalised viability (HCC1599 [6]) | normalised viability (BT-474 [7]) | normalised viability (HDQ-P1 [8]) | normalised viability (CAL-51 [9]) | normalised viability (CAL-85-1 [10]) | normalised viability (MFM-223 [11]) | normalised viability (SK-BR-3 [12]) | normalised viability (Hs578T [13]) | normalised viability (HCC1937 [14]) | normalised viability (CAL-120 [15]) | normalised viability (DU-4475 [16]) | normalised viability (BT-549 [17]) | normalised viability (MDA-MB-453 [18]) | normalised response (MDA-MB-436 [19]) | normalised response (HCC1143 [20]) | normalised response (CAL-148 [21]) | normalised response (MDA-MB-231 [22]) | normalised response (MDA-MB-468 [23]) | normalised response (HCC1599 [24]) | normalised response (MCF-10A) | normalised response (BT-474 [25]) | normalised response (HDQ-P1 [26]) | normalised response (CAL-51 [27]) | normalised response (CAL-85-1 [28]) | normalised response (MFM-223 [29]) | normalised response (SK-BR-3 [30]) | normalised response (Hs578T [31]) | normalised response (HCC1937 [32]) | normalised response (CAL-120 [33]) | normalised response (DU-4475 [34]) | normalised response (BT-549 [35]) | normalised response (MDA-MB-453 [36])
1 | NC(=O)c1ccc(I)c([N+](=O)[O-])c1 [Iniparib] (1 nM) | 108% | 97.1% | 93.2% | 98.9% | 99.1% | 87.8% | 92.8% | 104% | 95% | 86% | 103% | 92.1% | 116% | 130% | 85.1% | 87.6% | 113% | 94.5% | 87.1% | 87.8% | 83.8% | 90.9% | 94.8% | 101% | 77.3% | 83.2% | 92.5% | 128% | 94.6% | 84.2% | 76.7% | 90.9% | 93.5% | 96.5% | 93.8% | 108% | 86.2%
2 | Oc1ccc2c(c1)CC[C@H](c1ccccc1)[C@@H]2c1ccc(OCCN2CCCC2)cc1 [Lasofoxifene] (0.1 nM) | 102% | 76.4% | 115% | 90.2% | 99.4% | 92.2% | 107% | 87% | 104% | 83.1% | 89.1% | 97.1% | 96.6% | 80.3% | 83.3% | 93.1% | 114% | 95% | 99.2% | 104% | 109% | 106% | 106% | 104% | 109% | 106% | 104% | 86.3% | 95.4% | 103% | 113% | 99.6% | 100% | 107% | 102% | 97.1% | 115%
3 | Cc1ccc(NC(=O)c2ccc(CN3CCN(C)CC3)cc2)cc1Nc1nc(-c2cccnc2)cs1 [Masitinib] (1 nM) | 91.7% | 89.9% | 86.5% | 93.4% | 110% | 92.2% | 102% | 84.1% | 100% | 92.5% | 96.8% | 93.9% | 109% | 72.1% | 79.2% | 102% | 119% | 98.4% | 100% | 100% | 101% | 97.9% | 114% | 119% | 96.6% | 96.4% | 100% | 98.9% | 98.7% | 102% | 104% | 100% | 105% | 95.8% | 103% | 103% | 110%
4 | O=C(Nc1cccnc1)N1CCC(Cc2cccc(Oc3ccc(C(F)(F)F)cn3)c2)CC1 [PF-3845] (1 nM) | 99.8% | 92.8% | 106% | 114% | 104% | 98.9% | 70.3% | 145% | 98.4% | 89% | 91.9% | 123% | 135% | 91.6% | 86.7% | 92.1% | 111% | 103% | 105% | 108% | 114% | 110% | 97.9% | 95.8% | 113% | 98.6% | 103% | 89.8% | 101% | 110% | 113% | 106% | 98.4% | 107% | 95.8% | 107% | 117%
5 | Cc1[nH]c2ccccc2c1CCNCc1ccc(/C=C/C(=O)NO)cc1 [Panobinostat] (0.1 nM) | 109% | 104% | 106% | 109% | 106% | 116% | 102% | 100% | 110% | 104% | 104% | 97.2% | 100% | 104% | 102% | 111% | 108% | 108% | 98.9% | 100% | 105% | 105% | 94.4% | 98.6% | 96.2% | 101% | 98.2% | 130% | 102% | 99.5% | 95.9% | 91.8% | 94.7% | 107% | 99.7% | 99.5% | 103%
6 | COCC1(CO)C(=O)C2CCN1CC2 (stereo unspecified) [Prima-1 Met] (1 nM) | 104% | 91.1% | 93.2% | 89.7% | 108% | 123% | 96.1% | 83% | 90.5% | 90.5% | 98.7% | 104% | 114% | 74.9% | 86.9% | 120% | 106% | 93.9% | 102% | 98.8% | 107% | 101% | 107% | 101% | 108% | 102% | 108% | 81.5% | 101% | 104% | 109% | 99.1% | 95.5% | 97.1% | 102% | 104% | 116%
7 | CNC(=O)c1cc(Oc2ccc(NC(=O)Nc3ccc(Cl)c(C(F)(F)F)c3)c(F)c2)ccn1 [Regorafenib] (1 nM) | 104% | 100% | 103% | 101% | 108% | 131% | 91.4% | 88.5% | 96% | 88.9% | 106% | 100% | 84.9% | 83.5% | 89.7% | 121% | 102% | 105% | 99.9% | 98.5% | 94.2% | 100% | 114% | 110% | 104% | 95.7% | 100% | 90.1% | 104% | 97.2% | 112% | 99.5% | 96.4% | 94.1% | 102% | 99.9% | 115%
8 | CO[C@H]1C[C@@H]2CC[C@@H](C)[C@@](O)(O2)C(=O)C(=O)N2CCCC[C@H]2C(=O)O[C@H]([C@H](C)C[C@@H]2CC[C@@H](OP(C)(C)=O)[C@H](OC)C2)CC(=O)[C@H](C)/C=C(\C)[C@@H](O)[C@@H](OC)C(=O)[C@H](C)C[C@H](C)/C=C/C=C/C=C/1C [Ridaforolimus] (0.1 nM) | 105% | 88% | 99.4% | 112% | 96.8% | 104% | 94% | 78.4% | 97.2% | 82.1% | 82.2% | 81.8% | 97.7% | 108% | 84.8% | 100% | 91% | 93% | 98.1% | 102% | 104% | 99.3% | 96.5% | 96.5% | 105% | 99.6% | 94.1% | 114% | 101% | 101% | 105% | 97.7% | 93.1% | 101% | 105% | 91.2% | 96.3%
